Assays:
[1] = tested on: subject diagnosed with a sinus infection; experiment: Treatment of sinusitis in a subject; type: in vivo; conditions: nasal spray device described herein, effective dose 2× daily in each naris
Text: A subject is admitted to a clinic for nasal congestion, nasal inflammation, facial pain (e.g., pain around the eyes, cheeks, nose and forehead). The subject is diagnosed with a sinus infection. The subject is prescribed a beclomethasone dipropionate composition in a nasal spray device described herein. The subject administers the nasal spray in an effective dose 2× daily in each naris. The nasal spray is characterized by a spray containing a D50 of about 15 μm to about 24 μm, a D90 of from about 30 μm to about 50 μm and where less than about 3% of the droplets in the plume of a spray have a size of less than about 10 μm.

[2] = tested on: subject diagnosed with allergic rhinitis; experiment: Treatment of allergic rhinitis in a subject; type: in vivo; conditions: nasal spray device described herein, effective dose 1× daily in each naris
Text: A subject is admitted to a clinic for nasal congestion, sneezing, itchy eyes, and watery eyes. The subject is diagnosed with allergic rhinitis. The subject is prescribed a fluticasone propionate composition in a nasal spray device described herein. The subject administers the nasal spray in an effective dose 1× daily in each naris. The nasal spray is characterized by a spray containing a D50 of about 15 μm to about 24 μm, a D90 of from about 30 μm to about 50 μm, and where less than about 3% of the droplets in the plume of a spray have a size of less than about 10 μm.

SMILES	symptoms of the sinus infection (pain, nasal inflammation and congestion) after administration [1]	symptoms of allergic rhinitis (sneezing, itchy eyes, nasal congestion, watery eyes) after administration [2]
CCC(=O)OCC(=O)[C@@]1(OC(=O)CC)[C@@H](C)C[C@H]2[C@@H]3CCC4=CC(=O)C=C[C@]4(C)[C@@]3(Cl)[C@@H](O)C[C@@]21C [beclomethasone dipropionate]	reduced symptoms	–
CCC(=O)O[C@]1(C(=O)SCF)[C@H](C)C[C@H]2[C@@H]3C[C@H](F)C4=CC(=O)C=C[C@]4(C)[C@@]3(F)[C@@H](O)C[C@@]21C [fluticasone propionate]	–	reduced symptoms
